69 molecules from PubChem BioAssay AID179 (DTP/NCI, 2004) can be followed below.

SMILES strings stand for the structures. Active and inactive are the calls of the source.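 How the source made its calls: active means compounds giving half or more protection of infected cells from virus-caused growth loss, again on retest; inactive means the rest.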 Where a SMILES comes first, the peptide text is derived from it. The star is where a group is joined. Boc = CC(C)(C)OC(=O)*; OSu = O=C1CCC(=O)N1O* Where only a bound is given, the exact number is not on record here.

The subject of the test is CEM cells HIV-1 protection, formazan growth assay. The test is described as follows: NCI AIDS Antiviral Assay. The settings on record: for IC50: measured here: growth of uninfected CEM cells. The method, boiled down: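 Screen of anti-HIV-1 activity in human CEM cells using a formazan-based growth measurement at five drug concentrations. Hits with 50% or greater protection were repeated, and confirmation required reproducible complete protection.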

As usually defined, the EC50 is the concentration at which the effect is half-maximal. As usually defined, the IC50 is the concentration needed to halve the response being measured. Read a low IC50 as inhibition by little substance. Take `CN1C(=O)C(=O)n2c(cc3ccccc32)C1=O`: the EC50 is over 6.31 µM and the half-maximal inhibitory concentration (IC50) was over 6.31 µM. In the case of `CC1=C(CO)C(=O)O[C@@H]([C@@H](CO)[C@H]2CCC3C4C[C@@H](O)[C@@]5(O)CC=CC(=O)[C@]5(C)C4CC[C@@]32C)C1` (some centres not stated), the result was inactive. As for `CC(=O)OC[C@]1(O)CC[C@@]23CC1C[C@@H]2CCC1C(C)(C)CCC[C@@]13C` (some centres not stated), the EC50 is over 20.9 µM and the IC50 was over 20.9 µM. Regarding `COc1ccc(/C=c2/sc3n(c2=O)NC2(CCC(C)CC2)NN=3)cc1` (configuration not stated), the outcome was inactive.

On to `CC(=O)[CH-]C(C)=O.CC(=O)[CH-]C(C)=O.COc1cc2cc(C(=O)N3CC(CCl)c4ccc(NCCN)cc43)[nH]c2c(OC)c1OC.[Cr+5].[O-][Cl+3]([O-])([O-])[O-]` (configuration not stated), for which the EC50 is over 1 µM and the IC50 worked out at 0.479 µM.

Regarding `COC(=O)[C@@H](NC(=O)N(CCC#N)CCCN(C(=O)N[C@H](Cc1ccccc1)C(=O)OC)c1ccccc1)C(C)C`, the EC50 was over 200 µM and the IC50 turned out to be 87.1 µM.

For `O=c1cc(-c2ccc(O)c(O)c2)oc2cc(OC3OC(CO)C(O)C(O)C3O)cc(O)c12` (configuration not stated), the EC50 is over 200 µM and the 50% inhibitory concentration (IC50) worked out at 15.5 µM. For `Nn1c(NNC(=O)C(=O)Nc2cc(Cl)c(Cl)cc2Cl)n[nH]c1=S` the same measures were over 123 µM and over 123 µM. `CC1(C)C2CCC(N)(C2)C1O` (configuration not stated): the EC50 was over 200 µM and the IC50 is over 200 µM. Consider `CCN(CC)/C(=C\Cl)Nc1ccccn1`, for which the EC50 was over 759 µM and the IC50 is 117 µM. For `CC(C)(C)C1CCC(CC(=O)O)(CC(=O)Nc2nccs2)CC1` (configuration not stated) the same measures were over 200 µM and 89.1 µM.

Take `O=[N+]([O-])c1cc(-c2nnc(C34CC5CC(CC(C5)C3)C4)o2)cc([N+](=O)[O-])c1`: the EC50 was over 200 µM and the IC50 is over 200 µM.

On to `N#Cc1c(N)c2c(c(-c3ccccc3)c1-c1ccccc1)C(=O)N(Nc1ccccc1)C2=O`, for which the EC50 is over 200 µM and the IC50 turned out to be 27.5 µM.

Regarding `Nc1ccc2c(SCC(=O)Nc3ccccc3-c3ccccc3NC(=O)CSc3c4ccccc4nc4cc(N)ccc34)c3ccccc3nc2c1`, the EC50 was over 7.24 µM and the 50% inhibitory concentration (IC50) was over 7.24 µM. Regarding `Nc1c(Br)cc2c(c1Br)Cc1cc(Br)ccc1-2`, the EC50 is over 200 µM and the 50% inhibitory concentration (IC50) is over 200 µM. Take `CCCCCCCCCCOC(=O)c1cc[n+](C)cc1`: the result was inactive. With `Nc1c(C(=O)N/N=C/c2ccc(Cl)cc2)sc(=S)n1-c1ccccc1`, the EC50 was over 3.72 µM and the IC50 was over 3.72 µM. For the molecule `N#Cc1ccsc1C#N`, the EC50 is over 200 µM and the concentration for half-maximal inhibition (IC50) is over 200 µM.

As for `CCC1c2cc3n(c(=O)c2COC1O)Cc1c-3nc2ccccc2c1Cl` (configuration not stated), the EC50 was over 10 µM and the IC50 is 6.31 µM. As for `CCCCOC(C)(C)/C=C/C(O)[C@](C)(O)[C@H]1[C@H](O)C[C@@]2(C)[C@@H]3CCc4c(cc(OC5OC(CO)C(O)C(O)C5O)c(O)c4C)C3(C)C(=O)C[C@]12C` (some centres not stated), the EC50 was over 200 µM and the 50% inhibitory concentration (IC50) was over 200 µM. Consider `O=[N+]([O-])c1ccc(C(Nc2ccccc2)P(c2ccccc2)c2ccccc2)cc1` (configuration not stated), for which the EC50 is over 200 µM and the half-maximal inhibitory concentration (IC50) turned out to be 43.7 µM. The like results for `Cc1nc2ccccc2c(=O)n1/N=C/c1ccc(N(C)C)cc1` were, in that order, over 200 µM and over 200 µM. Turning to `O=C1C(c2ccc3ccccc3n2)=C(O)c2ccccc21`, the result was inactive. As for `O=C(O)CCC1CCc2cccc3occ1c23` (configuration not stated), the result was inactive. As for `N/C1=C/C(=O)NC(=O)c2c(c3ccccc3oc2=O)C1`, the EC50 is over 200 µM and the 50% inhibitory concentration (IC50) is over 200 µM. On to `CN(C)CCCOC(=O)C(c1ccccc1)C1(O)CCSCC1` (configuration not stated), for which the EC50 was over 200 µM and the half-inhibitory concentration (IC50) is over 200 µM.

Consider `COc1cc(C2SC(N)=Nc3c2c(C)nn3C(=O)c2ccc(Cl)cc2)cc(OC)c1OC` (configuration not stated), for which the EC50 was over 200 µM and the IC50 was over 200 µM. Turning to `COC(=O)C1(C(=O)OC)CC2c3c(c4ccccc4n3C)CC(C1=O)N2Cc1ccccc1` (configuration not stated), the outcome was inactive. Take `O=[N+]([O-])C(=C(Cl)Cl)C(Cl)=C(Cl)Cl`: the EC50 was over 200 µM and the concentration for half-maximal inhibition (IC50) was over 200 µM.

For `Cc1oc2nc(N(C)C)nc(Cl)c2c1C`, the result was inactive. For the molecule `CC(=O)Oc1c(C(C)C)cc2c(c1OC(C)=O)C[C@@]1(C)OC(=O)CC(C)(C)C1(OC(C)=O)C=C2` (some centres not stated), the outcome was inactive.

Regarding `O=C(O)CCC(CCC(=O)O)(C(=O)O)c1ccccc1`, the EC50 was over 5620 µM and the half-inhibitory concentration (IC50) was found to be 4470 µM.

`Cc1cc(S(=O)(=O)N=C2Nc3cccc4cccc(c34)N2)c(S)cc1Cl`: the EC50 is 132 µM and the IC50 is 174 µM. For `CC(NC(=O)C(NC(=O)OC(C)(C)C)C(C)C)C(=O)NCC(=O)ON1C(=O)CCC1=O` (stereo not drawn) (Boc-Val-Ala-Gly-OSu; configuration not given here) the same measures were over 200 µM and 117 µM. The like results for `O=c1ccn(C2OC(COC3CCCCO3)C(OC3CCCCO3)C2OC2CCCCO2)c(=O)n1-c1ccccc1` (configuration not stated) were, in that order, over 200 µM and over 200 µM. For `Cc1nc2ccc(N)cc2[nH]c1=O` the same measures were over 741 µM and over 741 µM. For the molecule `O=C1CC2(CCC(O)(c3ccccc3)C(C(=O)c3ccccc3)C2)C(=O)c2ccccc2N1` (configuration not stated), the EC50 is over 200 µM and the 50% inhibitory concentration (IC50) was over 200 µM. Turning to `CCCCCCCCCCC(C)CCCCCCC(=O)OCC(COP(=O)([O-])OCC[N+](C)(C)C)OC(=O)CCCCCCC(C)CCCCCCCCCC` (configuration not stated), the outcome was inactive. For the molecule `C/C(=N\NC(=S)N(C)CCN(C)C(=S)N/N=C(\C)c1ccccn1)c1ccccn1`, the EC50 was over 200 µM and the 50% inhibitory concentration (IC50) was 2.45 µM. Consider `Nc1ccc(Sc2nnc(N)s2)cc1`, for which the EC50 is over 224 µM and the half-inhibitory concentration (IC50) was over 224 µM. For the molecule `CCC1(O)CC2CC(=O)OC2C1O` (configuration not stated), the EC50 was over 200 µM and the IC50 was over 200 µM. Regarding `CCc1nc(N)c2nc(-c3cccs3)oc2n1`, the EC50 was over 200 µM and the 50% inhibitory concentration (IC50) stood at 182 µM. For `S=c1sc2cscc2s1` the same measures were over 52.5 µM and 30.9 µM.

For `O=C1OC(c2cccc3c(F)cccc23)c2ccccc21` (configuration not stated), the result was inactive. In the case of `O=C1c2ccccc2C(=O)N1[C@@H](Cc1ccccc1)C(=O)n1cccc1CO`, the EC50 is over 200 µM and the IC50 stood at 174 µM. For `O=C1CSc2ccccc2-n2cccc21` the same measures were over 209 µM and 105 µM. For `COc1cc(CO)c(CC(=O)NCCCc2ccccc2)cc1OC` the same measures were over 200 µM and 18.2 µM.

Turning to `O=C(O)C1OC(Oc2ccc3oc4ccccc4c(=O)c3c2)C(O)C(O)C1O` (configuration not stated), the EC50 was over 174 µM and the IC50 was determined as 145 µM. The like results for `S=C(NCCc1ccccn1)N/N=C(\c1ccccc1)c1ccccn1` were, in that order, over 0.2 µM and 0.0676 µM. The like results for `O=C(Nc1nc2ccc([N+](=O)[O-])cc2s1)C(=O)C(C(=O)c1ccccc1F)C1OC(=O)c2ccccc21` (configuration not stated) were, in that order, over 132 µM and 18.2 µM. With `Cc1csc([C@H]2CCC3[C@@H]4CC=C5C[C@@H](O)CC[C@]5(C)C4CC[C@@]32C)n1` (some centres not stated), the EC50 was over 67.6 µM and the IC50 is over 67.6 µM. With `O=C(c1ccccc1)c1ccc2c(c1)N=C(c1ccc(Cl)c(Cl)c1)CC(c1ccc3ccccc3c1)N2` (configuration not stated), the EC50 was over 13.8 µM and the IC50 is over 13.8 µM. Consider `CCCCC(C)(C/C=C/[C@@H]1[C@@H](C(O)CCCCCC(=O)OC)C(=O)C[C@H]1O[Si](C)(C)C(C)(C)C)O[Si](C)(C)C` (some centres not stated), for which the result was inactive. Take `Nc1ncnc2c1ncn2C1C(=O)C(CO)C1CO` (configuration not stated): the EC50 was over 234 µM and the half-maximal inhibitory concentration (IC50) was over 234 µM. Take `O=C1CN(/C=C(\c2ccccc2)S(=O)Cc2ccccc2)C(=S)N1` (configuration not stated): the EC50 is over 200 µM and the IC50 is over 200 µM. Take `COc1cccc(C=NC23CC4CC(CC(C4)C2)C3)c1`: the EC50 is over 69.2 µM and the 50% inhibitory concentration (IC50) is over 69.2 µM.

As for `O=C1C=CC=CC2CC=C[C@@H](O)C12` (some centres not stated), the EC50 is over 251 µM and the IC50 turned out to be 12 µM.

For the molecule `COc1cc2c(c(OC)c1OC)-c1ccc(OC)c(=O)cc1[C@@H](NC(=O)c1ccccc1)CC2`, the EC50 was over 0.2 µM and the IC50 amounted to 0.00339 µM. As for `O=C(NO)C(=O)Nc1cc(Cl)ccc1Cl`, the EC50 is over 145 µM and the half-maximal inhibitory concentration (IC50) is 66.1 µM. Take `CC(=O)CC1CCC(=O)CCC(=O)OC(CC(C)=O)CCC(=O)CCC(=O)O1` (configuration not stated): the EC50 was 170 µM and the 50% inhibitory concentration (IC50) was over 200 µM.

Consider `CC[C@@H](CCCCC1CC[C@H]2CC(=O)C[C@@H]12)OC` (some centres not stated), for which the EC50 is over 200 µM and the IC50 is 102 µM. As for `CCC(C)C(NC(=O)C(CCC(N)=O)NC(=O)C(CCC(N)=O)NC(=O)C(CO)NC(=O)C(CC(C)C)NC(=O)C(CC(N)=O)NC(=O)C(N)C(C)O)C(=O)NC(CO)C(=O)NC(CO)C(=O)NC(CC(N)=O)C(=O)O` (configuration not stated) (H-TNLSQQISSN-OH; configuration not given here), the EC50 is over 28.8 µM and the IC50 is over 28.8 µM. On to `O=C1C(S)=[N+](O)c2ccccc2[N+]1=O`, for which the EC50 is over 200 µM and the half-maximal inhibitory concentration (IC50) was over 200 µM. Take `Cc1ccc(S(=O)(=O)/N=S(\C)c2cccc(Cl)c2)cc1` (configuration not stated): the EC50 was over 200 µM and the 50% inhibitory concentration (IC50) is 170 µM. For the molecule `COC1OC(Cn2cc([N+](=O)[O-])nc2C)C(O)C(O)C1O` (configuration not stated), the EC50 was over 200 µM and the IC50 was over 200 µM. As to `CN1CCN(C)C(=O)CSSCC1=O`, the EC50 is over 151 µM and the IC50 is over 151 µM. As to `CN1C(=O)C2(C=CCC2)c2ccccc21` (configuration not stated), the EC50 was over 1260 µM and the half-maximal inhibitory concentration (IC50) stood at 81.3 µM. As for `CCCCCC(C)SC1(C(=O)OC)CC(OC(C)=O)C(NC(C)=O)C([C@H](OC(C)=O)[C@@H](COC(C)=O)OC(C)=O)O1` (some centres not stated), the EC50 is over 200 µM and the IC50 was 63.1 µM. The like results for `O=S1(=O)COc2ccccc2-c2ncncc21` were, in that order, 47.9 µM and over 200 µM.
